# Experimental data as given in patent US20100203531A1, “PREDICTING RESPONSIVENESS TO TEMOZOLOMIDE” (priority 2007, published 2010).
# Columns and labels:
# Format in all cases: in vivo, human
# GBM16 xenograft = assay: Orthotopic intracranial xenograft survival, GBM16; conditions: for Survival Prolongation: median survival relative to placebo, 66 mg/kg oral for 5 days (Table 3), 66 mg/kg
# Method: (§1) In vivo sensitivity of GBM lines to TMZ: To address whether MGMT methylation or polypeptide expression status are predictive of TMZ responsiveness, the effects of TMZ therapy on survival were evaluated in the panel of xenografts using an orthotopic therapy model. Mice with established intracranial xenografts were treated with 66 mg/kg TMZ or placebo daily for 5 days by oral gavage. This TMZ dosing regimen provides the equivalent dose-exposure to TMZ as the standard adjuvant TMZ dosing regimen for GBM patients of 200 mg/m^2×5 days. All mice were followed until reaching a moribund state, and the relative prolongation of survival following TMZ treatment was calculated for each line relative to placebo treatment (Table 1). […] Further analysis of the relationship between TMZ responsiveness and MGMT methylation status in 17 xenograft lines was conducted by comparing the distribution of median survival prolongation results for methylation-positive and methylation-negative groups of xenografts. From this analysis, MGMT methylation was modestly associated with increased TMZ sensitivity (FIG. 2, p=0.039, two-sample rank sum test). In a similar analysis of MGMT polypeptide expression levels, high levels of MGMT polypeptide expression were invariably associated with relative TMZ resistance, and the absence of MGMT polypeptide expression was associated with significant TMZ sensitivity (r=−0.73, p=0.005). […] While p53, PTEN and EGFR function have been linked to TMZ sensitivity in some models, no correlation between genetic alterations of these genes and TMZ responsiveness was observed.
# (§2) Orthotopic model: Therapy evaluations were conducted using an orthotopic tumor model as described elsewhere (Sarkaria et al., Clin Cancer Res, 12:2264-2271 (2006), Giannini et al., Neuro-Oncology, 7:164-176, (2005)). Athymic nude mice (NCI, Frederick, Md.) with established intracranial tumors were randomized into groups of 8 to 10 mice each and treatment was initiated 2 weeks before mice were expected to become moribund. TMZ was purchased from the Mayo Clinic Pharmacy, suspended in Ora-plus (Paddock Laboratories, Minneapolis. MN), and administered by oral gavage at 66 mg/kg for 5 days. Mice were observed daily and euthanized when moribund.
# (§3) Statistical analysis: Survival distributions were estimated using the Kaplan-Meier method. The log rank test was used to compare survival across treatment groups. All GBM experiments were pooled and Classification and Regression Tree analysis (CART) was used to identify which CpG sites in the MS-PCR assay (CpG sites 78-82, 86-89) were predictive of overall survival in TMZ treated mice. The two-sample rank sum test was used to compare relative differences in survival relative to MGMT MS-PCR status or CpG89 methylation status. Spearman's correlation coefficient was used to assess the association of relative median survival and protein expression levels of MGMT relative to 13-actin.
# GBM36 xenograft = assay: Orthotopic intracranial xenograft survival, GBM36
# Method: as §1, §2
# as §3, with “Spearman's correlation coefficient was used to assess the association of relative median survival and protein expression levels of MGMT relative to 13-actin.” left out
# GBM6 xenograft = assay: Orthotopic intracranial xenograft survival, GBM6
# Method: as §1, with “Mice with established intracranial xenografts were treated with 66 mg/kg TMZ or placebo daily for 5 days by oral gavage.” left out
# as §2, with “MN), and administered by oral gavage at 66 mg/kg for 5 days.” left out
# as §3
# GBM26 xenograft = assay: Orthotopic intracranial xenograft survival, GBM26; conditions: for Survival Prolongation: median survival relative to placebo, 66 mg/kg oral for 5 days (Table 3), 66 mg/kg
# Method: as §1, §2, §3
# GBM28 / GS28 xenograft = assay: Orthotopic intracranial xenograft survival, GBM28 (GS28)
# Method: as §1, §2
# as §3, with “Spearman's correlation coefficient was used to assess the association of relative median survival and protein expression levels of MGMT relative to 13-actin.” left out
# GBM14 xenograft = assay: Orthotopic intracranial xenograft survival, GBM14
# Method: as §1
# as §2, with “MN), and administered by oral gavage at 66 mg/kg for 5 days.” left out
# as §3
# GBM59 xenograft = assay: Orthotopic intracranial xenograft survival, GBM59
# Method: In vivo sensitivity of GBM lines to TMZ: To address whether MGMT methylation or polypeptide expression status are predictive of TMZ responsiveness, the effects of TMZ therapy on survival were evaluated in the panel of xenografts using an orthotopic therapy model. Mice with established intracranial xenografts were treated with 66 mg/kg TMZ or placebo daily for 5 days by oral gavage. This TMZ dosing regimen provides the equivalent dose-exposure to TMZ as the standard adjuvant TMZ dosing regimen for GBM patients of 200 mg/m^2×5 days. All mice were followed until reaching a moribund state, and the relative prolongation of survival following TMZ treatment was calculated for each line relative to placebo treatment (Table 1). […] Further analysis of the relationship between TMZ responsiveness and MGMT methylation status in 17 xenograft lines was conducted by comparing the distribution of median survival prolongation results for methylation-positive and methylation-negative groups of xenografts. From this analysis, MGMT methylation was modestly associated with increased TMZ sensitivity (FIG. 2, p=0.039, two-sample rank sum test). […]
compound,measurement,setting,value
"Cn1nnc2c(C(N)=O)ncn2c1=O [TMZ, Temozolomide]",Survival Prolongation,GBM16 xenograft; GBM16,579%
same,Survival Prolongation,"GBM16 xenograft; GBM16, listed as Temozolomide",579%
same,Survival benefit,"GBM16 xenograft; GBM16, prolongation of median survival relative to placebo, TMZ 66 mg/kg oral x5 days",579%
same,TMZ median survival,"GBM16 xenograft; GBM16 intracranial xenograft, nude mice, TMZ 66 mg/kg oral daily x5 days",300
same,Temozolomide median survival,"GBM16 xenograft; GBM16 intracranial, athymic nude mice, 66 mg/kg oral gavage for 5 days (Table 3)",326
same,Survival Prolongation,"GBM36 xenograft; GBM36, median survival relative to placebo, 66 mg/kg oral for 5 days (Table 3)",82%
same,Survival benefit,"GBM36 xenograft; GBM36, prolongation of median survival relative to placebo, TMZ 66 mg/kg oral x5 days",82%
same,TMZ median survival,"GBM36 xenograft; GBM36 intracranial xenograft, nude mice, TMZ 66 mg/kg oral daily x5 days",214
same,Temozolomide median survival,"GBM36 xenograft; GBM36 intracranial, athymic nude mice, 66 mg/kg oral gavage for 5 days (Table 3)",229
same,Survival Prolongation,"GBM6 xenograft; GBM6, median survival relative to placebo, 66 mg/kg oral for 5 days (Table 3)",37%
same,Survival benefit,"GBM6 xenograft; GBM6, prolongation of median survival relative to placebo, TMZ 66 mg/kg oral x5 days",37%
same,Survival benefit,"GBM6 xenograft; GBM6 generation 20, TMZ 120 mg/kg for 5 days, intracranial",67%
same,Survival benefit,"GBM6 xenograft; GBM6 generation 24, TMZ 66 mg/kg for 5 days, intracranial",21%
same,TMZ median survival,"GBM6 xenograft; GBM6 intracranial xenograft, nude mice, TMZ 66 mg/kg oral daily x5 days",56
same,Temozolomide median survival,"GBM6 xenograft; GBM6 intracranial, athymic nude mice, 66 mg/kg oral gavage for 5 days (Table 3)",56
same,Survival Prolongation,GBM26 xenograft; GBM26,21%
same,Survival Prolongation,"GBM26 xenograft; GBM26, listed as Temozolomide",21%
same,Survival benefit,"GBM26 xenograft; GBM26, prolongation of median survival relative to placebo, TMZ 66 mg/kg oral x5 days",21%
same,TMZ median survival,"GBM26 xenograft; GBM26 intracranial xenograft, nude mice, TMZ 66 mg/kg oral daily x5 days",100
same,Temozolomide median survival,"GBM26 xenograft; GBM26 intracranial, athymic nude mice, 66 mg/kg oral gavage for 5 days (Table 3)",100
same,Survival benefit,"GBM28 / GS28 xenograft; GBM28, prolongation of median survival relative to placebo, TMZ 66 mg/kg oral x5 days",70%
same,TMZ median survival,"GBM28 / GS28 xenograft; GBM28 intracranial xenograft, nude mice, TMZ 66 mg/kg oral daily x5 days",56
same,Survival Prolongation,"GBM28 / GS28 xenograft; GS28, median survival relative to placebo, 66 mg/kg oral for 5 days (Table 3)",70%
same,Temozolomide median survival,"GBM28 / GS28 xenograft; GS28 intracranial, athymic nude mice, 66 mg/kg oral gavage for 5 days (Table 3)",56
same,Survival Prolongation,"GBM14 xenograft; GBM14, median survival relative to placebo, 66 mg/kg oral for 5 days (Table 3)",558%
same,Survival benefit,"GBM14 xenograft; GBM14, prolongation of median survival relative to placebo, TMZ 66 mg/kg oral x5 days",558%
same,Survival benefit,"GBM14 xenograft; GBM14 generation 21, TMZ 120 mg/kg for 5 days, intracranial",148%
same,Survival benefit,"GBM14 xenograft; GBM14 generation 33, TMZ 66 mg/kg for 5 days, intracranial",421%
same,TMZ median survival,"GBM14 xenograft; GBM14 intracranial xenograft, nude mice, TMZ 66 mg/kg oral daily x5 days",154
same,Temozolomide median survival,"GBM14 xenograft; GBM14 intracranial, athymic nude mice, 66 mg/kg oral gavage for 5 days (Table 3)",217
same,Survival benefit,"GBM59 xenograft; GBM59, prolongation of median survival relative to placebo, TMZ 66 mg/kg oral x5 days",96%
same,TMZ median survival,"GBM59 xenograft; GBM59 intracranial xenograft, nude mice, TMZ 66 mg/kg oral daily x5 days",90
